# According to patent US20260191968A1, “PROTAC DEGRADERS OF MLLT1 AND/OR MLLT3” (DARK BLUE THERAPEUTICS LTD, priority 2024, published 2026):
# Target: T1, MLLT1 (Homo sapiens, UniProt Q03111)
# T1 construct: host or cells: MV4-11
# T1 sequence (Q03111 1-559): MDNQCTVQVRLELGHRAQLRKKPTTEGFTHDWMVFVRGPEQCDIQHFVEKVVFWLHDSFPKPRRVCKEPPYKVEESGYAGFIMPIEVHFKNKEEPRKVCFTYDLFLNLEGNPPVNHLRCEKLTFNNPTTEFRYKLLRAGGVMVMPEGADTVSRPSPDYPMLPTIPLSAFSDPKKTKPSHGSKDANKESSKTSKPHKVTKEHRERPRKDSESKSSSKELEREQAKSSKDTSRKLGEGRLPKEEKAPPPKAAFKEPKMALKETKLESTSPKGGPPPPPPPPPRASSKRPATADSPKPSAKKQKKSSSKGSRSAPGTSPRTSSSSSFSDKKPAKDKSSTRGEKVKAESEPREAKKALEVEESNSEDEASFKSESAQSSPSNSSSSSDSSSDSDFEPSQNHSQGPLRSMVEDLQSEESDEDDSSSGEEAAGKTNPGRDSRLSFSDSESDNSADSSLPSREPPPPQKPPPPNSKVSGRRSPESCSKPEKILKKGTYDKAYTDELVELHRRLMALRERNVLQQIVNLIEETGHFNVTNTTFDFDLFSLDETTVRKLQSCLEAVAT
# Assay: MLLT1 degradation assay in MV4-11 cells (JESS chemiluminescent detection), three concentrations, 24 h
# Format: cell-based
# Details: with respect to DMSO control
# Method: MLLT1 degradation efficacy of compounds were tested in an automated chemiluminescent detection system (JESS, Cat #004-650). […] 10 mM DMSO stocks were prepared, and cells were treated with three concentrations of test compounds viz. 1000, 100 and 10 nM at a final DMSO concentration of 0.1% and incubated for 24 h at 37° C., 5% CO2. […] Post run, data were analysed using “Compass for SW” software for chemiluminescent detection. The peak area for each band was used for the calculation of MLLT1 degradation with respect to DMSO control. Data is shown as “MLLT1% degradation”.
SMILES,MLLT1% Degradation @ 0.01 μM,MLLT1% Degradation @ 0.1 μM,MLLT1% Degradation @ 1 μM
"CN1CCC[C@@H]1c1cc2cnc(NC(=O)c3ccc(N4CCC(OC5CCN(c6cccc7c6C(=O)N(C6CCC(=O)NC6=O)C7=O)CC5)CC4)cc3)cc2[nH]1 (stereo partly drawn) [Example 136, 4-(4-((1-(2-(2,6-dioxopiperidin-3-yl)-1,3-dioxoisoindolin-4-yl)piperidin-4-yl)oxy)piperidin-1-yl)-N-(2-((R)-1-methylpyrrolidin-2-yl)-1H-pyrrolo[3,2-c]pyridin-6-yl)benzamide]",C (Category C: 25% ≤ C < 50% degradation),B (Category B: 50% ≤ B < 75% degradation),B (Category B: 50% ≤ B < 75% degradation)
"CN1CCC[C@@H]1c1cc2cnc(NC(=O)c3ccc(N4CC[C@@H](CC#Cc5cccc6c5CN(C5CCC(=O)NC5=O)C6=O)C4)nc3)cc2[nH]1 (stereo partly drawn) [Example 226, 6-((3R)-3-(3-(2-(2,6-dioxopiperidin-3-yl)-1-oxoisoindolin-4-yl)prop-2-yn-1-yl)pyrrolidin-1-yl)-N-(2-((R)-1-methylpyrrolidin-2-yl)-1H-pyrrolo[3,2-c]pyridin-6-yl)nicotinamide]",B (Category B: 50% ≤ B < 75% degradation),B (Category B: 50% ≤ B < 75% degradation),C (Category C: 25% ≤ C < 50% degradation)
"CN1CCC[C@@H]1c1cc2cnc(NC(=O)c3ccc(N4CCC(OC5CCN(c6ccc7c(c6)CN(C6CCC(=O)NC6=O)C7=O)CC5)CC4)nc3)cc2[nH]1 (stereo partly drawn) [Example 139, 6-(4-((1-(2-(2,6-dioxopiperidin-3-yl)-1-oxoisoindolin-5-yl)piperidin-4-yl)oxy)piperidin-1-yl)-N-(2-((R)-1-methylpyrrolidin-2-yl)-1H-pyrrolo[3,2-c]pyridin-6-yl)nicotinamide]",B (Category B: 50% ≤ B < 75% degradation),B (Category B: 50% ≤ B < 75% degradation),B (Category B: 50% ≤ B < 75% degradation)
"CN1CCC[C@@H]1c1cc2cnc(NC(=O)c3ccc(OCCC4CCN(c5cccc6c5CN(C5CCC(=O)NC5=O)C6=O)CC4)cc3F)cc2[nH]1 (stereo in doubt) [Example 173, 4-(2-(1-(2-((rel-R)-2,6-dioxopiperidin-3-yl)-1-oxoisoindolin-4-yl)piperidin-4-yl)ethoxy)-2-fluoro-N-(2-((R)-1-methylpyrrolidin-2-yl)-1H-pyrrolo[3,2-c]pyridin-6-yl)benzamide]",B (Category B: 50% ≤ B < 75% degradation),A (Category A: A ≥ 75% degradation),A (Category A: A ≥ 75% degradation)
"CN1CCC[C@@H]1c1cc2cnc(NC(=O)c3ccc(OCCC4CCN(c5cccc6c5CN(C5CCC(=O)NC5=O)C6=O)CC4)cc3)cc2[nH]1 (stereo in doubt) [Example 81, 4-(2-(1-(2-((rel-R)-2,6-dioxopiperidin-3-yl)-1-oxoisoindolin-4-yl)piperidin-4-yl)ethoxy)-N-(2-((R)-1-methylpyrrolidin-2-yl)-1H-pyrrolo[3,2-c]pyridin-6-yl)benzamide]",A (Category A: A ≥ 75% degradation),A (Category A: A ≥ 75% degradation),A (Category A: A ≥ 75% degradation)
"C[C@@H]1CN(CC2CCN(c3cccc4c3CN(C3CCC(=O)NC3=O)C4=O)CC2)CCN1c1ccc(C(=O)Nc2cc3[nH]c([C@H]4CCCN4C)cc3cn2)cc1 (relative stereo) [Example 134, 4-((R)-4-((1-(2-((rel-R)-2,6-dioxopiperidin-3-yl)-1-oxoisoindolin-4-yl)piperidin-4-yl)methyl)-2-methylpiperazin-1-yl)-N-(2-((R)-1-methylpyrrolidin-2-yl)-1H-pyrrolo[3,2-c]pyridin-6-yl)benzamide]",B (Category B: 50% ≤ B < 75% degradation),A (Category A: A ≥ 75% degradation),A (Category A: A ≥ 75% degradation)
"CN1CCC[C@@H]1c1cc2cnc(NC(=O)c3ccc(OCC#Cc4cccc5c4CN(C4CCC(=O)NC4=O)C5=O)c(Cl)c3)cc2[nH]1 (stereo partly drawn) [Example 23, 3-chloro-4-((3-(2-(2,6-dioxopiperidin-3-yl)-1-oxoisoindolin-4-yl)prop-2-yn-1-yl)oxy)-N-(2-((R)-1-methylpyrrolidin-2-yl)-1H-pyrrolo[3,2-c]pyridin-6-yl)benzamide]",C (Category C: 25% ≤ C < 50% degradation),C (Category C: 25% ≤ C < 50% degradation),C (Category C: 25% ≤ C < 50% degradation)
"CN1CCC[C@@H]1c1cc2cnc(NC(=O)c3ccc(N4CCC5(CC4)CCN(c4cccc6c4CN(C4CCC(=O)NC4=O)C6=O)CC5)cc3F)cc2[nH]1 (stereo partly drawn) [Example 202, 4-(9-(2-(2,6-dioxopiperidin-3-yl)-1-oxoisoindolin-4-yl)-3,9-diazaspiro[5.5]undecan-3-yl)-2-fluoro-N-(2-((R)-1-methylpyrrolidin-2-yl)-1H-pyrrolo[3,2-c]pyridin-6-yl)benzamide]",D (Category D: D < 25% degradation),C (Category C: 25% ≤ C < 50% degradation),C (Category C: 25% ≤ C < 50% degradation)
"CN1CCC[C@@H]1c1cc2cnc(NC(=O)c3ccc(N4CCC(CC#Cc5ccc6c(c5)CN(C5CCC(=O)NC5=O)C6=O)CC4)nc3)cc2[nH]1 (stereo partly drawn) [Example 224, 6-(4-(3-(2-(2,6-dioxopiperidin-3-yl)-1-oxoisoindolin-5-yl)prop-2-yn-1-yl)piperidin-1-yl)-N-(2-((R)-1-methylpyrrolidin-2-yl)-1H-pyrrolo[3,2-c]pyridin-6-yl)nicotinamide]",C (Category C: 25% ≤ C < 50% degradation),C (Category C: 25% ≤ C < 50% degradation),C (Category C: 25% ≤ C < 50% degradation)
"CN1CCC[C@@H]1c1cc2cnc(NC(=O)c3ccc(N4CCC(OCC5CCN(c6ccc7c(c6)CN(C6CCC(=O)NC6=O)C7=O)CC5)CC4)nc3)cc2[nH]1 (stereo partly drawn) [Example 228, 6-(4-((1-(2-(2,6-dioxopiperidin-3-yl)-1-oxoisoindolin-5-yl)piperidin-4-yl)methoxy)piperidin-1-yl)-N-(2-((R)-1-methylpyrrolidin-2-yl)-1H-pyrrolo[3,2-c]pyridin-6-yl)nicotinamide]",C (Category C: 25% ≤ C < 50% degradation),D (Category D: D < 25% degradation),D (Category D: D < 25% degradation)
